Test systems include DU-145 prostate; MOLT-4 leukemia; MCF7 breast; MALME-3M melanoma; A498 renal; TK-10 renal; SK-OV-3 ovarian; EKVX NSCLC.
Holding throughout (assay): NCI-60 cell line screen, 48 h

Structures are written as SMILES.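 Grown in 96-well plates, cells were treated for 48 hours with each compound at five concentrations. Insufficient inhibition: endpoint recorded as highest concentration tested. At the GI50, growth is halved. TGI: total growth inhibition.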

Turning to `Cn1c(=O)c(Oc2ccc(F)cc2F)cc2cnc(NCC(C)(C)O)nc21`, the GI50 in the assay with DU-145 prostate, with MOLT-4 leukemia, in the assay with MCF7 breast, in the assay on MALME-3M melanoma, in the assay on A498 renal and in the assay with TK-10 renal was over 25 µM throughout. Also, in the assay with SK-OV-3 ovarian, the GI50 is over 25 µM. For the same compound, the TGI in the assay on DU-145 prostate, in the assay with MOLT-4 leukemia, in the assay with MCF7 breast, with MALME-3M melanoma, in the assay on A498 renal and in the assay with TK-10 renal was over 25 µM in each case. In addition, in the assay on SK-OV-3 ovarian, the TGI is over 25 µM.
On to `COC(=O)c1c2c(c(C)[n+]([O-])c1C)C(=O)C(NCc1ccc(O)cc1)=CC2=O`, for which the GI50 with DU-145 prostate is 1.75 µM; in the assay on MCF7 breast it was 0.416 µM; in the assay on EKVX NSCLC, 1.73 µM; in the assay with MALME-3M melanoma, 0.256 µM; with A498 renal, 1.31 µM. The TGI amounted to 3.19 µM in the assay on DU-145 prostate; 2 µM in the assay on MCF7 breast; 3.34 µM with EKVX NSCLC; 0.93 µM in the assay on MALME-3M melanoma; 2.92 µM with A498 renal.
Take `COc1c(B(O)O)cccc1-c1nc2c(F)cc3n[nH]c(C)c3c2c2c1CCCC2`: the GI50 in the assay on DU-145 prostate was 1.42 µM; in the assay on MOLT-4 leukemia, 0.272 µM; in the assay with MCF7 breast it was 1.43 µM; in the assay with EKVX NSCLC, 1.42 µM; in the assay on MALME-3M melanoma, 2.5 µM; in the assay on TK-10 renal, 0.0215 µM. In the assay on SK-OV-3 ovarian, the GI50 is 0.666 µM. The TGI in the assay on DU-145 prostate was over 50 µM; with MOLT-4 leukemia, over 50 µM; in the assay with MCF7 breast it was over 50 µM; in the assay with EKVX NSCLC it was over 27 µM; in the assay on MALME-3M melanoma it was 7.73 µM; in the assay on TK-10 renal it was 49.6 µM. This compound also registered a TGI in the assay on SK-OV-3 ovarian of 4.71 µM.
With `O=C(Nc1cccc(-n2cc(-c3ccncc3)c(-c3ccc(Cl)c(O)c3)n2)c1)Nc1ccc(Cl)c(Cl)c1`, the GI50 was 1.5 µM in the assay with DU-145 prostate; 1.38 µM in the assay on MOLT-4 leukemia; 1.06 µM with MCF7 breast; 1.19 µM in the assay with MALME-3M melanoma; 0.94 µM in the assay on A498 renal; 1.91 µM in the assay on TK-10 renal. Moreover, the GI50 in the assay on SK-OV-3 ovarian was 1.2 µM. Moreover, the TGI in the assay with DU-145 prostate is over 32.5 µM; in the assay with MOLT-4 leukemia, over 32.5 µM; with MCF7 breast, over 32.5 µM; with MALME-3M melanoma it was 8.1 µM; with A498 renal, 3.17 µM; in the assay on TK-10 renal, over 32.5 µM. The TGI in the assay on SK-OV-3 ovarian is over 32.5 µM.
As for `CC(=O)N[C@@H](Cc1ccc(OP(=O)(O)O)cc1)C(=O)N[C@H]1CCC(=O)N2CCC[C@@H](C(=O)NC3CCc4ccccc43)N2C1=O` (stereo partly specified), the GI50 in the assay on DU-145 prostate, in the assay on MOLT-4 leukemia, with MCF7 breast, in the assay on MALME-3M melanoma, with A498 renal and in the assay with TK-10 renal was over 25 µM each time. Besides, in the assay on SK-OV-3 ovarian, the GI50 is over 25 µM. Besides, the TGI in the assay on DU-145 prostate, with MOLT-4 leukemia, in the assay on MCF7 breast, in the assay with MALME-3M melanoma, in the assay with A498 renal and in the assay with TK-10 renal was over 25 µM each time. In addition, the TGI in the assay on SK-OV-3 ovarian was over 25 µM.
Take `COCCn1c2c([n+](Cc3cnccn3)c1C)C(=O)c1ccccc1C2=O`: the GI50 in the assay on DU-145 prostate is under 0.01 µM; in the assay with MOLT-4 leukemia it was under 0.01 µM; with EKVX NSCLC, under 0.01 µM; with MALME-3M melanoma it was 0.126 µM; in the assay with A498 renal it was 0.0987 µM; in the assay with TK-10 renal it was 0.0352 µM. Moreover, the GI50 in the assay with SK-OV-3 ovarian was 0.0588 µM. Moreover, the TGI came to 0.019 µM in the assay on DU-145 prostate; 0.034 µM with MOLT-4 leukemia; 0.0162 µM with EKVX NSCLC; 0.316 µM in the assay on MALME-3M melanoma; 0.573 µM in the assay with A498 renal; 0.222 µM in the assay on TK-10 renal. The compound further displayed a TGI in the assay with SK-OV-3 ovarian of 0.573 µM.
For the compound `COC1C(=O)CCC2(CO2)C1(O)C1(C)OC1CC=C(C)C` (stereo unspecified), the TGI was over 100 µM in the assay on DU-145 prostate; 83.2 µM in the assay with MOLT-4 leukemia; 53 µM with MCF7 breast; over 100 µM in the assay on EKVX NSCLC; over 100 µM in the assay with A498 renal; over 100 µM in the assay on TK-10 renal. Besides, the TGI in the assay with SK-OV-3 ovarian was over 100 µM.
Consider `COc1cc2c(cc1-c1coc3cc(O)ccc3c1=O)OCO2`, for which the TGI with DU-145 prostate was over 100 µM; with MOLT-4 leukemia, over 100 µM; with MCF7 breast, 90.9 µM; in the assay on EKVX NSCLC, over 100 µM; with A498 renal it was 80.5 µM; with TK-10 renal, 43.9 µM. Also, in the assay on SK-OV-3 ovarian, the TGI worked out at 37.3 µM.
For `CN(C)CCCCNc1ccc(NCCCCN(C)C)c2c1C(=O)c1c(O)ccc(O)c1C2=O`, the GI50 in the assay with DU-145 prostate is 1.29 µM; in the assay on MCF7 breast, 1.59 µM; in the assay on EKVX NSCLC, 1.81 µM; in the assay on MALME-3M melanoma, 18.3 µM; in the assay with A498 renal it was 13.5 µM; in the assay with TK-10 renal, 13.3 µM. The GI50 with SK-OV-3 ovarian is 3.06 µM. The TGI came out at 2.55 µM with DU-145 prostate; 2.99 µM with MCF7 breast; 3.82 µM with EKVX NSCLC; 33.5 µM with MALME-3M melanoma; 26.3 µM in the assay with A498 renal; 26.4 µM with TK-10 renal. Besides, the TGI with SK-OV-3 ovarian stood at 9.8 µM.
For the compound `COc1cc(C2CC(c3cccc(Nc4ccnc5cc(Cl)ccc45)c3)=NN2c2ccccc2)cc(OC)c1OC` (stereo unspecified), the GI50 in the assay on DU-145 prostate was over 100 µM; in the assay with MOLT-4 leukemia, 7.98 µM; with MCF7 breast it was 2.74 µM; with MALME-3M melanoma it was over 100 µM; in the assay on TK-10 renal it was 9.57 µM; in the assay with SK-OV-3 ovarian, over 100 µM. Also, the TGI with DU-145 prostate, with MOLT-4 leukemia, in the assay on MCF7 breast, with MALME-3M melanoma, with TK-10 renal and in the assay on SK-OV-3 ovarian was over 100 µM each time.
As for `CN(C)c1ccc(/C=c2/c3cc(O)ccc3n3c2cc(-c2ccccc2)[n+]3C)cc1`, the TGI in the assay with DU-145 prostate was 6.07 µM; in the assay on MCF7 breast it was over 100 µM; with A498 renal, over 100 µM; with TK-10 renal it was over 100 µM; in the assay on SK-OV-3 ovarian, over 100 µM. The GI50 with MCF7 breast is 1.18 µM; in the assay on A498 renal, over 100 µM; in the assay with TK-10 renal, 4.88 µM; in the assay on SK-OV-3 ovarian it was 6.13 µM.
For the compound `O=C1c2ccc3c4c(ccc(c24)C(=O)N1CCNCc1ccccc1)C(=O)N(CCNCc1ccccc1)C3=O`, the GI50 was 2.76 µM in the assay with DU-145 prostate; 3.96 µM in the assay on MOLT-4 leukemia; 2.03 µM in the assay on EKVX NSCLC; 15.6 µM in the assay with A498 renal; 2.93 µM with TK-10 renal; 20.9 µM with SK-OV-3 ovarian. The TGI was 11.4 µM with DU-145 prostate; over 100 µM in the assay on MOLT-4 leukemia; 6.02 µM in the assay on EKVX NSCLC; 37.8 µM in the assay with A498 renal; over 100 µM in the assay with TK-10 renal; 45.4 µM with SK-OV-3 ovarian.
